Consider 1 substance from publication PMC3196589, “Fluorescent Peptide Biosensor for Probing the Relative Abundance of Cyclin-Dependent Kinases in Living Cells” (PLoS ONE, 2011).

No end group written: not given here.

Holding throughout (experiment): Live-cell ratiometric quantification of CDKSENS-Cy3/Ctrl-Cy5 fluorescence
Format in all cases: cell-based

Experiment [1] concerns CDK/Cyclins in HT2-19 cells. To be noted: for Mean Ratio CDKSENS-Cy3/Ctrl-Cy5: mean +/- SD of 3 fields. The method, then: (§1) Cell culture media, serum and antibiotics were purchased from Invitrogen. HeLa, HS68, A549, MCF-7 and U2OS cells were obtained from ATCC and were cultured in Dulbecco's Modified Eagle Medium (DMEM)+Glutamax supplemented with 10% Fetal Calf Serum (FCS), 1 mM penicillin and 1 mM streptomycin at 37°C in an atmosphere containing 5% CO2. HT2-19 cells, provided by Dr. A.Porter, were cultured in DMEM supplemented with non essential amino acids, antibiotics, sodium pyruvate, glutamine, and 10% FCS and grown with 50 uM isopropyl-thiogalactoside (IPTG) for maximal induction of CDK1 [28]. Cell extracts were prepared in lysis buffer containing 50 mM TrisHCl, pH 7.4, 150 mM NaCl, 0.1% NP40, 0.1% Deoxycholate, 2 mM EDTA, 1 mM phenylmethlsulfonyl fluoride (PMSF), CompleteTM protease inhibitors (Roche), 50 mM NaF, 40 mM β-Glycero-phosphate, 1 mM Na3VO4 and normalized following spectrophotometric dosage at 280 nm. […] Samples were then processed for SDS-PAGE and CDK, Cyclin retention was detected by Western blotting.
(§2) For fixed observations, cells were treated for 20 minutes with paraformaldehyde, nuclei were stained with Hoechst 33342 (Sigma), and cells were mounted with Prolong Gold AntiFade Reagent (Invitrogen). Epifluorescence images were acquired on a Leica DM6000 microscope (Leica Microsystems) piloted by the Metamorph software (Universal Imaging). For colocalization experiments, images were acquired on a Zeiss axioplan2/LSM510 META confocal microscope. Live-cell imaging was performed on a Zeiss Axiovert 200 M piloted by the Metamorph software. Images were processed with ImageJ software.
(§3) CDKSENS-Cy3 and Ctrl-Cy5 were complexed individually with CADY2 and codelivered into cells. Live-cell imaging acquisitions were substracted for background signal corresponding to minimal fluorescence levels using Metamorph. Image J was then used for image analysis. Regions of interest (ROI) corresponding to 10–15 cells in which fluorescence appeared homogeneous were designed and the mean grey levels of fluorescence for each channel (Cy3 and Cy5) were quantified within these ROIs. For each experiment, and the mean ratiometric value of CDKSENS-Cy3/Ctrl-Cy5 was calculated from 3–4 different ROIs. Each experiment was performed 3–4 times to assess the robustness of the quantification strategy. All statistical analyses are presented by the mean and standard deviation.

Experiment [2] has as its system CDK/Cyclins in HeLa cells. Here is the method: as §1, §2, §3
For experiment [3], the system named is CDK/Cyclins in MCF7 cells. The method, then: as §1, §2, §3

Regarding “CDKSENS-Cy3: CDKSENS labelled with cyanine probe Cy3 (C(Cy3 maleimide)DKSENS)”, in experiment [1] (HT2-19, 4 days without IPTG vs 50 uM IPTG), the “decrease of CDKSENS-Cy3/Ctrl-Cy5 ratio without IPTG” value turned out to be 20%. Further, the “Mean Ratio CDKSENS-Cy3/Ctrl-Cy5” value in experiment [1] (HT219+IPTG) was 5,37+/−0,18; in experiment [1] (HT219 WO IPTG), 4,36+/−0,21; in experiment [2] (HeLa (A549 experiment), mean +/- SD of 3 fields) it was 6,72+/−0,37; in experiment [2] (HeLa (MCF7 experiment), mean +/- SD of 4 fields) it was 7,29+/−0,39; in experiment [2] (HeLa (U20S experiment), mean +/- SD of 4 fields), 6,79+/−0,53; in experiment [3] (MCF7, mean +/- SD of 4 fields), 5,99+/−0,33. Also, the “Relative Mean Ratiometric Value” in experiment [1] (HT219+IPTG, normalized to highest mean) was 1+/−0,033; in experiment [2] (HeLa (A549 experiment), normalized to highest mean), 1+/−0,054; in experiment [2] (HeLa (HS68 experiment), normalized to highest mean), 1+/−0,039; in experiment [2] (HeLa (MCF7 experiment), normalized to highest mean), 1+/−0,053; in experiment [2] (HeLa (U20S experiment), HeLa set to 1), 1+/−0,079; in experiment [3] (MCF7, normalized to HeLa mean), 0.82+/−0,046. Besides, the “decrease of CDKSENS-Cy3/Ctrl-Cy5 values, MCF7 vs HeLa” value in experiment [3] (MCF7 compared to HeLa, range stated jointly for A549 and MCF7) was 18–20%.
